# Results as given in PMC4555001 (Bioorganic & medicinal chemistry, 2015).
# Entries after “also recorded” stand apart in the source; their conditions may differ.
# How the values were obtained:
# [1] = test system: ETA receptors; experiment: Inhibition of ET-1 induced vasoconstriction in the gerbil spiral modiolar artery; conditions: agonist 1 nM ET-1; antagonist 0.1-1 μM; competitive inhibition assumed
# [2] = test system: ETA receptor; conditions: rat cardiac membranes; ref [6]-[9]; cited from earlier work
# [3] = target: ETA receptor; conditions: read-out: Ki, ET-1 induced contraction of rat aortic strips; ref [6]-[9]; cited from earlier work
# [4] = test system: voltage-gated Na^+ currents (TTX-sensitive); experiment: Patch clamp recording of voltage-gated Na+ currents in mouse DRG neurons; type: cell-based
# [5] = test system: voltage-gated Ca^2+ currents (LVA, principally Cav3.2 T-type; HVA, mainly L-type); experiment: Patch clamp recording of voltage-gated Ca2+ currents in mouse DRG neurons; type: cell-based
# [6] = test system: voltage-gated K^+ currents; experiment: Patch clamp recording of voltage-gated K+ currents in mouse DRG neurons; type: cell-based
# [7] = test system: ETA receptors; conditions: ref [25], cited from earlier work
compound,measurement,setting,value
"CC1(C)C(=O)CC[C@]2(C)[C@H]3CC[C@@H]4CCC(=O)C=C4[C@]3(C)CC[C@@H]12 [(+)-1, (+)-(4aR,10bR)-1,1,4a,10b-Tetramethyl-4,4a,4b,5,6,6a,7,8,10b,11,12,12a-dodecahydro-chrysene-2,9(1H,3H)-dione]",A2 (putative affinity value),[1],193 nM
"CC1(C)C(=O)CC[C@]2(C)[C@H]3CC[C@@H]4CCC(=O)C[C@@]4(C#N)[C@]3(C)CC[C@@H]12 [(+)-2, (+)-(4aS,4bR,6aR,10aR,10bR,12aR)-4b,7,7,10a-Tetramethyl-3,8-dioxo-octadecahydrochrysene-4a-carbonitrile]",A2 (putative affinity value),[1],134 nM
"CC1(C)CC[C@]2(C(=O)O)CC[C@]3(COC(=O)/C=C/c4ccc(O)c(O)c4)C(=CC[C@@H]4[C@@]5(C)CCC(=O)C(C)(C)[C@@H]5CC[C@]43C)[C@@H]2C1 [(+)-myriceric acid A, myriceric acid A]",Effect on specific binding of [125I]endothelin-1,[2],antagonizes specific binding
same,Ki,[3],66 ± 15 nM
same,A2 (putative affinity value),[1],85 nM
"CC1(C)[C@@H]2CC[C@]3(C)[C@H](CC[C@@H]4CC=C(O[Si](C)(C)C(C)(C)C)C[C@]43C=N)[C@@]2(C)CCC12OCCO2 [(-)-3, (-)-{(4aR,4bR,6aR,10a S,10bR,12aR)-9-(tert-Butyldimethylsilyloxy)-1,1,4a,10b-tetramethyl-3,4,4a,4b,5,6,6a,7,10,10a,10b,11,12,12a-tetradecahydro-1H-spiro[chrysene-2,2′-[1,3]dioxolane]-10a-yl}methanimin]",Inhibition of Na+ currents,[4]; 0.3 μM (as stated in conclusions),little inhibitions
same,Inhibition of Na+ currents,[4]; 3 μM,non-specific inhibition
same,Inhibition of Na+ currents,"[4]; 0.1 - 0.3 μM, depolarizing to 0 mV for 20 ms",little inhibition; also recorded: little inhibitory effect
same,Inhibition of Ca2+ currents,[5]; 3 μM,completely block; also recorded: non-specific inhibition
same,Inhibition of Ca2+ currents,"[5]; 0.1 and 0.3 μM, step to -10 mV from Vh -90 mV",substantially inhibited
same,Inhibition of LVA- and HVA-Ca2+ currents,[5]; bath application 0.1 - 3 μM,concentration-dependent inhibition; also recorded: concentration-dependent blockage
same,A2 (putative affinity value),[1],93 nM
same,Inhibition of K+ currents,[6]; 3 μM,non-specific inhibition
same,Inhibition of K+ currents,"[6]; 0.1 - 0.3 μM, depolarizing to 70 mV for 300 ms",little inhibition; also recorded: little inhibitory effect
"CC1(C)[C@@H]2CC[C@]3(C)[C@H](CC[C@@H]4CC[C@@]5(O)C[C@]43C=N5)[C@@]2(C)CCC12OCCO2 [(-)-4, (-)-Spiro-(10a, 9)-{(4aR,4bR,6aR,10aS,10bR,12aR)-1,1,4a,10b-tetramethyl-3,4,4a,4b,5,6,6a,7,10,10a,10b,11,12,12a-tetradecahydro-1H-spiro[chrysene-2,2′-[1,3]dioxolane]-10a-yl}methyl-hemiaminal]",A2 (putative affinity value),[1],301 nM
"CC1(C)C(=O)CC[C@]2(C)[C@H]3CCc4ccc(O)cc4[C@]3(C)CC[C@@H]12 [(-)-5, (-)-(4aR,4bR,10bR)-9-Hydroxy-1,1,4a,10b-tetramethyl-3,4,4a,4b,5,6,10b,11,12,12a-decahydrochrysen-2(1H)-one]",A2 (putative affinity value),[1],205 nM
"CC1(C)C(=O)CC[C@]2(C)[C@H]3CCc4ccc(OCCO)cc4[C@]3(C)CC[C@@H]12 [(-)-6, (-)-(4aR,10bR)-9-(2-Hydroxyethoxy)-1,1,4a,10b-tetramethyl-4,4a,5,6,10b,11,12,12a-octahydro-(1 H,3H,4bH)-chrysen-2-one]",A2 (putative affinity value),[1],318 nM
Endothelin-1 [ET-1],"Emax, normalized maximal vasoconstriction",[7]; normalized to 10 mM Ca2+ vasoconstriction,140%
same,EC50,"[7]; read-out: EC50 of vasoconstriction, gerbil spiral modiolar artery",0.74 nM
